From patent US20050152857A1, “Method and preparation for reducing sunburn cell formation in skin” (PCR Technology Holdings, LC, priority 2004, published 2005)

Experiments:
[1] = test system: sensitivity of skin to UV light; conditions: cited from earlier work
[2] = test system: sunburn cells in human skin; assay: 2-week human sun burn cell assay study with glycolic acid compositions (Formulas 4-5, 1.5 MED solar simulator); type: in vivo; conditions: compared with normal, untreated skin, UV-exposed
Excerpt: The idebenone-containing Formula 4 and the placebo Formula 5 of Example 3 were applied to human skin in a 2-week human sun burn cell assay study.
The panel composition was six different healthy adult volunteers between the ages of 18 and 53. All were in excellent health, and without any significant internal or dermatological diseases. The subjects were carefully screened to insure they were not taking any medications.
The subjects were given detailed instructions to avoid any direct exposure to sunlight and to minimize any incidental exposure to their backs for the entire duration of the study. […]
The light source used was a 150 watt xenon arc solar simulator equipped with a UV reflecting diachronic mirror and a 1 mm thick Schott WG-320 filter to produce simulation of the solar spectrum. […] Total irradiance at skin level was measured with a calibrated Eppley Thermopile and the UVB component was monitored with a UVB radiometer (International Light Inc, Newburyport, Mass.). […]
Two days prior to the end of the study, the MED (minimal erythema dose) for each subject was determined by exposing several normal untreated skin sites over the midback area to a series of exposures in 25% dose increments from the solar simulator. […] The MED was recorded in the appropriate case record form. […]

O=C(O)CO [glycolic acid]
sensitivity of skin to UV light, sunburn cell induction ([1]; 10% glycolic acid (pH 3.5) once daily, 6 days per week, 4 weeks, 1.5 MED, 29 Caucasian subjects): enhanced sensitivity to UV light, including increased sunburn cell induction
duration of photosensitivity after terminating treatments ([1]; 10% glycolic acid (pH 3.5), after 4 weeks of treatment): reversed within a week of terminating treatments

COC1=C(OC)C(=O)C(CCCCCCCCCCO)=C(C)C1=O [idebenone, 6-(10-hydroxydecyl)-2,3-dimethoxy-5-methyl-1,4-benzoquinone]
prevention of the increase in sun sensitivity / sunburn cell formation produced by 10 wt. % glycolic acid [2]: prevented the increase in formation of sunburn cells
